Data as given in patent US11136296B2, “Substituted N-arylethyl-2-arylquinoline-4-carboxamides and use thereof” (Bayer Aktiengesellschaft, priority 2017, dated 2021).

target: FP receptor (Homo sapiens (Human), UniProt P43088); assay: In vitro test of inhibition of human FP receptor activity (PGF2α-induced calcium flux in FP-expressing CHEM1 cells); type: cell-based; settings: PGF2α-induced (2 nM) calcium flux in FP-expressing CHEM1 cells; some as mean values from multiple determinations
Description: Table 1 below lists the IC50 values from this assay for individual working examples of the invention (some as mean values from multiple independent individual determinations): […]

FP receptor, sequence (P43088 whole entry): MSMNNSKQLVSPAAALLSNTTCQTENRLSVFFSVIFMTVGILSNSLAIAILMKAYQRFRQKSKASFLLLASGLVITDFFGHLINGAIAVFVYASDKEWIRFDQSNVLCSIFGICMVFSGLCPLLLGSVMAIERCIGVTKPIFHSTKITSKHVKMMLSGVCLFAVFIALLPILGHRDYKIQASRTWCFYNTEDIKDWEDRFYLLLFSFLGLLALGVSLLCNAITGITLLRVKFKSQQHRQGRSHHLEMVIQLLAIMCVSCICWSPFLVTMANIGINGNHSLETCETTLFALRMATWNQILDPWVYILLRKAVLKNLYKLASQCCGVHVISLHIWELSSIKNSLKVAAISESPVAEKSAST

| SMILES | IC50 [nM] |
| --- | --- |
| Cc1c(-c2ccccc2)nc2ccc(Br)cc2c1C(=O)NCC(CCC(=O)O)c1c(F)cccc1C(F)(F)F (single isomer, unassigned; (+)) [Example 226, (+)-5-{[(6-Bromo-3-methyl-2-phenylquinolin-4-yl)carbonyl]amino}-4-[2-fluoro-6-(trifluoromethyl)phenyl]pentanoic Acid] | 100 |
| Cc1c(-c2ccccc2)nc2ccc(Br)cc2c1C(=O)NCC(C)(CCCC(=O)O)c1ccccc1 (single isomer, unassigned; (+)) [Example 245, (+)-6-{[(6-Bromo-3-methyl-2-phenylquinolin-4-yl)carbonyl]amino}-5-methyl-5-phenylhexanoic Acid] | 63 |
| Cc1c(-c2ccccc2)nc2ccc(Br)cc2c1C(=O)NCC(C(=O)O)c1ccccc1 (single isomer, unassigned; (-)) [Example 2, (−)-3-{[(6-Bromo-3-methyl-2-phenylquinolin-4-yl)carbonyl]amino}-2-phenylpropanoic Acid] | 160 |
| COc1ccccc1C(CNC(=O)c1c(C)c(-c2ccccc2)nc2ccc(Br)cc12)C(=O)O (single isomer, unassigned; (-)) [Example 8, (−)-3-{[(6-Bromo-3-methyl-2-phenylquinolin-4-yl)carbonyl]amino}-2-(2-methoxyphenyl)propanoic Acid] | 130 |
| Cc1c(-c2ccccc2)nc2ccc(Br)cc2c1C(=O)NCC(C)(C(=O)O)c1ccccc1 (single isomer, unassigned; (-)) [Example 14, (−)-3-{[(6-Bromo-3-methyl-2-phenylquinolin-4-yl)carbonyl]amino}-2-methyl-2-phenylpropanoic Acid] | 53 |
| CCC(CNC(=O)c1c(C)c(-c2ccccc2)nc2ccc(Br)cc12)(C(=O)O)c1ccccc1 (single isomer, unassigned; (-)) [Example 17, (−)-2-({[(6-Bromo-3-methyl-2-phenylquinolin-4-yl)carbonyl]amino}methyl)-2-phenylbutanoic Acid] | 260 |
| Cc1c(-c2ccccc2)nc2ccc(Br)cc2c1C(=O)NCC(O)(C(=O)O)c1ccccc1 (single isomer, unassigned; (-)) [Example 21, (−)-3-{[(6-Bromo-3-methyl-2-phenylquinolin-4-yl)carbonyl]amino}-2-hydroxy-2-phenylpropanoic Acid] | 170 |
| Cc1c(-c2ccccc2)nc2ccc(Br)cc2c1C(=O)NCC(C)(C(=O)O)c1ccccc1F (single isomer, unassigned; (-)) [Example 31, (−)-3-{[(6-Bromo-3-methyl-2-phenylquinolin-4-yl)carbonyl]amino}-2-(2-fluorophenyl)-2-methylpropanoic Acid] | 68 |
| Cc1c(-c2ccccc2)nc2ccc(Br)cc2c1C(=O)NCC(C)(C(=O)O)c1c(F)cccc1F (single isomer, unassigned; (-)) [Example 34, (−)-3-{[(6-Bromo-3-methyl-2-phenylquinolin-4-yl)carbonyl]amino}-2-(2,6-difluorophenyl)-2-methylpropanoic Acid] | 130 |
| Cc1c(-c2ccccc2)nc2ccc(Br)cc2c1C(=O)NCC(C)(C(=O)O)c1ccccc1Cl (single isomer, unassigned; (-)) [Example 36, (−)-3-{[(6-Bromo-3-methyl-2-phenylquinolin-4-yl)carbonyl]amino}-2-(2-chlorophenyl)-2-methylpropanoic Acid] | 810 |
| Cc1c(-c2ccccc2)nc2ccc(Br)cc2c1C(=O)NCC(F)(C(=O)O)c1ccccc1 (single isomer, unassigned; (-)) [Example 39, (−)-3-{[(6-Bromo-3-methyl-2-phenylquinolin-4-yl)carbonyl]amino}-2-fluoro-2-phenylpropanoic Acid] | 140 |
| Cc1c(-c2ccccc2)nc2ccc(Br)cc2c1C(=O)NCC(C)(C(=O)O)c1cccc(C(F)(F)F)c1 (single isomer, unassigned; (-)) [Example 42, (−)-3-{[(6-Bromo-3-methyl-2-phenylquinolin-4-yl)carbonyl]amino}-2-methyl-2-[3-(trifluoromethyl)phenyl]propanoic Acid] | 120 |
| COc1cccc(C(CNC(=O)c2c(C)c(-c3ccccc3)nc3ccc(Br)cc23)C(=O)O)c1 (single isomer, unassigned; (-)) [Example 45, (−)-3-{[(6-Bromo-3-methyl-2-phenylquinolin-4-yl)carbonyl]amino}-2-(3-methoxyphenyl)propanoic Acid] | 600 |
| COc1ccccc1C(O)(CNC(=O)c1c(C)c(-c2ccccc2)nc2ccc(Br)cc12)C(=O)O (single isomer, unassigned; (-)) [Example 54, (−)-3-{[(6-Bromo-3-methyl-2-phenylquinolin-4-yl)carbonyl]amino}-2-hydroxy-2-(2-methoxyphenyl)propanoic Acid] | 500 |
| COc1cccc(F)c1C(CNC(=O)c1c(C)c(-c2ccccc2)nc2ccc(Br)cc12)C(=O)O (single isomer, unassigned; (-)) [Example 57, (−)-3-{[(6-Bromo-3-methyl-2-phenylquinolin-4-yl)carbonyl]amino}-2-(2-fluoro-6-methoxyphenyl)propanoic Acid] | 210 |

These reach a lower IC50. Values come first.

| IC50 [nM] | SMILES |
| --- | --- |
| 8 | Cc1c(-c2ccccc2)nc2ccc(Br)cc2c1C(=O)NCC(SCC(=O)O)c1ccccc1Cl (single isomer, unassigned; (+)) [Example 195, (+)-{[2-{[(6-Bromo-3-methyl-2-phenylquinolin-4-yl)carbonyl]amino}-1-(2-chlorophenyl)ethyl]sulfanyl}acetic Acid] |
| 6.2 | Cc1c(-c2ccccc2)nc2ccc(Br)cc2c1C(=O)NCC(CCC(=O)O)c1c(Cl)ccc(F)c1F (single isomer, unassigned; (+)) [Example 202, (+)-5-{[(6-Bromo-3-methyl-2-phenylquinolin-4-yl)carbonyl]amino}-4-(6-chloro-2,3-difluorophenyl)pentanoic Acid] |
| 22 | Cc1c(-c2ccccc2)nc2ccc(Br)cc2c1C(=O)NCC(CCC(=O)O)c1ccccc1C(F)(F)F (single isomer, unassigned; (+)) [Example 205, (+)-5-{[(6-Bromo-3-methyl-2-phenylquinolin-4-yl)carbonyl]amino}-4-[2-(trifluoromethyl)phenyl]pentanoic Acid] |
| 11 | Cc1ccc(F)cc1C(CCC(=O)O)CNC(=O)c1c(C)c(-c2ccccc2)nc2ccc(Br)cc12 (single isomer, unassigned; (+)) [Example 208, (+)-5-{[(6-Bromo-3-methyl-2-phenylquinolin-4-yl)carbonyl]amino}-4-(5-fluoro-2-methylphenyl)pentanoic Acid] |
| 6.1 | Cc1c(-c2ccccc2)nc2ccc(Br)cc2c1C(=O)NCC(CCC(=O)O)c1ccccc1OC(F)(F)F (single isomer, unassigned; (+)) [Example 210, (+)-5-{[(6-Bromo-3-methyl-2-phenylquinolin-4-yl)carbonyl]amino}-4-[2-(trifluoromethoxy)phenyl]pentanoic Acid] |
| 4.4 | O=C(O)CCC(CNC(=O)c1c(Cl)c(-c2ccccc2)nc2ccc(Br)cc12)c1ccccc1Cl (single isomer, unassigned; (+)) [Example 214, (+)-5-{[(6-Bromo-3-chloro-2-phenylquinolin-4-yl)carbonyl]amino}-4-(2-chlorophenyl)pentanoic Acid] |
| 19 | O=C(O)CCC(CNC(=O)c1c(Cl)c(-c2ccccc2)nc2ccc(Br)cc12)c1ccccc1C(F)(F)F (single isomer, unassigned; (+)) [Example 217, (+)-5-{[(6-Bromo-3-chloro-2-phenylquinolin-4-yl)carbonyl]amino}-4-[2-(trifluoromethyl)phenyl]pentanoic Acid] |
| 8 | C#Cc1ccc2nc(-c3ccccc3)c(C)c(C(=O)NCC(CCC(=O)O)c3ccccc3Cl)c2c1 (single isomer, unassigned; (+)) [Example 220, (+)-4-(2-Chlorophenyl)-5-{[(6-ethynyl-3-methyl-2-phenylquinolin-4-yl)carbonyl]amino}pentanoic Acid] |
| 12 | O=C(O)CCC(CNC(=O)c1c(Cl)c(-c2ccccc2)nc2ccc(Br)cc12)c1c(F)ccc(F)c1Cl (single isomer, unassigned; (+)) [Example 223, (+)-5-{[(6-Bromo-3-chloro-2-phenylquinolin-4-yl)carbonyl]amino}-4-(2-chloro-3,6-difluorophenyl)pentanoic Acid] |
| 49 | Cc1c(-c2ccccc2)nc2ccc(Br)cc2c1C(=O)NCC(CCC(=O)O)c1c(F)c(F)cc(F)c1F (single isomer, unassigned; (+)) [Example 230, (+)-5-{[(6-Bromo-3-methyl-2-phenylquinolin-4-yl)carbonyl]amino}-4-(2,3,5,6-tetrafluorophenyl)pentanoic Acid] |
| 32 | Cc1c(-c2ccccc2)nc2ccc(Br)cc2c1C(=O)NCC(CCC(=O)O)c1c(Cl)ccc(Cl)c1Cl (single isomer, unassigned; (+)) [Example 235, (+)-5-{[(6-Bromo-3-methyl-2-phenylquinolin-4-yl)carbonyl]amino}-4-(2,3,6-trichlorophenyl)pentanoic Acid] |
| 16 | Cc1c(-c2ccccc2)nc2ccc(Br)cc2c1C(=O)NCC(C)(CCCC(=O)O)c1ccccc1Cl (single isomer, unassigned; (+)) [Example 242, (+)-6-{[(6-Bromo-3-methyl-2-phenylquinolin-4-yl)carbonyl]amino}-5-(2-chlorophenyl)-5-methylhexanoic Acid] |
| 33 | Cc1c(-c2ccccc2)nc2ccc(Br)cc2c1C(=O)NCC(C(=O)O)c1cccc(Cl)c1 (single isomer, unassigned; (-)) [Example 48, (−)-3-{[(6-Bromo-3-methyl-2-phenylquinolin-4-yl)carbonyl]amino}-2-(3-chlorophenyl)propanoic Acid] |
| 42 | Cc1cccc(C(CNC(=O)c2c(C)c(-c3ccccc3)nc3ccc(Br)cc23)C(=O)O)c1 (single isomer, unassigned; (-)) [Example 51, (−)-3-{[(6-Bromo-3-methyl-2-phenylquinolin-4-yl)carbonyl]amino}-2-(3-methylphenyl)propanoic Acid] |
